PubChem BioAssay AID1996
Converted amounts (≈) assume the structure as drawn.

details: buffer; pH 7.4; 200.0 µM

Structure (SMILES)	solubility kinetic [µg/mL]
COc1ccc2nc(NC(=O)Nc3ccccc3)sc2c1	< 0.2
O=C(/C=C/c1cccs1)N1CCN(c2ccc(F)cc2)CC1	3.1 (≈ 9.8 µM)
Cc1cc(C)c(NC(=O)CN(C)CC(=O)Nc2cccc(S(=O)(=O)N(C)c3ccccc3)c2)c(C)c1.O=C(O)C(=O)O	14.3
S=c1[nH]cc(-c2ccc(Cl)cc2)n1Cc1ccccc1	< 0.3
CC1=N/C(=C/c2cc(Br)cc(Br)c2O)C(=O)O1	2.8 (≈ 7.76 µM)
Clc1ccc(C2Nc3cccc4cccc(c34)N2)cc1Cl	0.4 (≈ 1.27 µM)
CN(Cc1nc2ccccc2c(=O)[nH]1)C(=O)C1CC(=O)N(c2cccc3ccccc23)C1 (configuration not stated)	> 64
CN(C(=S)NC(=O)C12CC3CC(CC(C3)C1)C2)c1ccc(O)cc1	45.8 (≈ 133 µM)
CCN1C(=O)c2cccc3c(S(=O)(=O)Nc4ccccc4O)ccc1c23	0.5 (≈ 1.36 µM)
CSc1ccc(CN2CCN(C(=O)Cc3ccccc3)CC2)cc1	28.9 (≈ 84.9 µM)
Cc1cc(Oc2ccc([N+](=O)[O-])cc2)nc(N2CCOCC2)n1	0.4 (≈ 1.26 µM)
O=C(O)CC1(CC(=O)NCc2cc(F)cc3c2OCOC3)CCCCC1	> 54.8
CCc1ccc2nc(N)sc2c1	> 26.7
CC(C)(C)N=C(NS(=O)(=O)c1cccs1)c1ccccc1	> 48.4
O=[N+]([O-])c1ccc(N2CCc3ccccc3C2)cc1	0.9 (≈ 3.54 µM)
O=C(/C=C/c1ccccc1)NCCCNC(=O)/C=C/c1ccccc1	5 (≈ 15 µM)
O=C1CCc2cc(S(=O)(=O)Nc3ccc(F)cc3)ccc2N1	> 48.1
COc1ccccc1Oc1ccc(NC(=O)Cc2ccccc2)cc1	< 0.7
Cc1onc(-c2c(F)cccc2Cl)c1C(O)c1ccc(F)cc1 (configuration not stated)	> 50.4
CC(C)(CNCc1ccccc1)NS(=O)(=O)c1ccc(Cl)cc1	> 52.9

More lines, now with the values ahead:

solubility kinetic [µg/mL]	Structure (SMILES)
> 35.4	COc1ccccc1NC(=O)N1CCOCC1
17.1 (≈ 55 µM)	O=C(CCNC(=O)c1ccco1)Nc1ccc(F)c(Cl)c1
> 56.7	Cc1ccc(SCC(=O)NC(=O)c2ccccc2Br)c(C)c1
> 41	O=C(c1ccc(F)cc1F)N1CCCc2ccccc21
> 45.3	O=C1CCC(C(=O)Nc2ccccc2N2CCOCC2)=NN1
37.9 (≈ 127 µM)	CCc1ccc(OCC(=O)O/N=C(\N)c2ccccn2)cc1
11.1 (≈ 34.9 µM)	O=C(OCc1cc(=O)n2ccsc2n1)c1ccc(O)cc1O
10.7 (≈ 29.2 µM)	COc1ccc(NC(=O)c2ccc(S(=O)(=O)N3CCOCC3)o2)cc1
0.4 (≈ 1.2 µM)	CC(=O)NC(c1ccc(C(C)C)cc1)c1ccc2cccnc2c1O (configuration not stated)
> 34.7	N#C/C(=C/Nc1ccccc1C(=O)O)C(N)=O
> 43.4	Cc1ccnc(NC(=O)CNC(=O)c2ccc(C)s2)c1
> 40.4	CC(=O)N(Cc1ccccc1)c1ccccc1C(=O)O
> 36.9	O=C(Cc1ccccc1)NCC(=O)N1CCCC1
5.6 (≈ 16.7 µM)	Nc1nc(CSc2ccc(Cl)cc2)nc(N2CCCCC2)n1
32.4 (≈ 89.3 µM)	CN(Cc1ccccc1F)C(=O)CCCNC(=O)c1ccc(Cl)cc1
17.9 (≈ 62.9 µM)	O=C(CCc1c[nH]c2ccccc12)N1CCCCCCC1
> 46.6	CC1CCCC(C)N1C(=O)COC(=O)c1cccnc1Cl (configuration not stated)
> 49.5	O=C(O)CN1C(=O)/C(=C/c2ccccc2Cl)Oc2ccccc21
43.8 (≈ 134 µM)	O=C(COC(=O)CCNS(=O)(=O)c1ccccc1)NC1CC1
1.3 (≈ 5.8 µM)	O=[N+]([O-])c1cccc2c1ccc1ncccc12
45.7 (≈ 140 µM)	Cc1ccn2cc(CCNC(=O)C3CC=CCC3C(=O)O)nc2c1 (configuration not stated)
19 (≈ 50.2 µM)	CCOc1ccc(C(=O)OCC(=O)Nc2cccnc2Cl)cc1OCC
